Laboratory results published in patent US7862815B2, “Methods for inhibiting angiogenesis with inhibitors of proadrenomedullin N-terminal 20 peptide (PAMP)” (The United States of America as represented by the …, priority 2002, dated 2011).

How the values were obtained:
[1] = test system: Human dermal microvascular endothelial cells; assay: Calcium measurements (ATP-induced calcium flux); type: cell-based; details: 100 nM PAMP(12-20) with 10 nM PAMP and 1 mM ATP
Method: Human dermal microvascular endothelial cells were obtained from Cell Applications, Inc. and cultured in 96-well plates at 1.0×10^5 cells per well. The cells were loaded for 60 minutes at room temperature with the fluorescent dye FLIPR (Molecular Devices) and then transferred to the FlexStation II (Molecular Devices) for analysis. The test compounds were prepared in another plate at a concentration of 5× and were added to the proper wells by the robotic arm of the FlexStation II. Fluorescence was measured every five seconds in each well and recorded. One mM ATP (Sigma) was used as a calcium agonist (Lau et al., Life Sci. 73, 20 19-2028, 2003).

[2] = test system: H1299; assay: DIVAA, angiogenesis induced by tumor cells embedded in matrigel; type: in vivo, human; details: H1299, 10,000 cells per angioreactor, 100 nM PAMP(12-20)
Method: (§1) Analysis and quantitation of angiogenesis was done using DIVAA as previously described (Martinez et al., J. Natl. Cancer Inst., 21; 94(16):1226-37, 2002; Guedez et al., Am. J. Pathol. 162, 1431-1439, 2003). Briefly, 10 mm long surgical-grade silicone tubes with only one end open (angioreactors) were filled with 20 μl of matrigel alone or mixed with AM, bFGF, VEGF, PAMP, and/or PAMP(12-20) at the indicated concentrations. Human lung cancer cell lines (see below) were also premixed with matrigel alone or in combination with PAMP(12-20) at 10,000 cells per angioreactor. After the matrigel solidified, the angioreactors were implanted into the dorsal flanks of anesthetized athymic nude mice (NCI colony). After eleven days, the mice were injected intravenously with 25 mg/ml FITC-dextran (100 μl/mouse, Sigma) 20 minutes before removing the angioreactors. Photographs of the implants were taken for visual examination of angiogenic response. Quantitation of neovascularization in the angioreactors was determined as the amount of fluorescence trapped in the implants and was measured in a HP Spectrophotometer (Perkin Elmer).
(§2) The human cancer cell lines used, A549 and H1299, were obtained from the American Tissue Culture Collection (ATCC) and fed with RPMI164O containing 10% fetal bovine serum (Invitrogen). […]

[3] = test system: A549; assay: as above; type: in vivo, human; details: A549, 10,000 cells per angioreactor, 100 nM PAMP(12-20)
Method: as §1, §2

[4] = test system: athymic nude mice; assay: DIVAA with angioreactors, Example 2 (peptides in matrigel); type: in vivo
Method: as §1
To further characterize this observation, an […] assay was employed that allows for more precise quantitation of angiogenic properties: the directed […] angiogenesis assay or DIVAA (Martinez et al., J. Natl. Cancer Inst., 21; 94(16): 1226-37, 2002; Guédez et al., Am. J. Pathol. 162, 1431-1439, 2003). The assay involves implanting small silicone capsules carrying the test substances under the skin of nude mice. After eleven days, the mice are injected with a specific amount of FITC-dextran, and the volume of blood circulating through the implant is quantified by measuring the fluorescence in the capsule. In addition, the new blood vessels growing into the silicone tube can be seen directly by transparency (FIG. 4A-F). […] The extent of the angiogenic response can be seen clearly when this response is compared with the negative control (FIG. 4A). The angiogenic response elicited by PAMP was dose-dependent (FIG. 4C-G). When compared to AM and VEGF responses at equimolar concentrations, a clear difference was observed.

[5] = test system: A549 tumors; assay: Xenograft experiment; type: in vivo, athymic nude mice
Method: Twenty female athymic nude mice from the NIH colony in Frederick (MD) were injected subcutaneously with 1.0×10^7 A549 cells/mouse. Two weeks later, all the mice had developed palpable tumors under the skin and at this time they were divided in two groups. Three times a week, each individual tumor was measured (length, height, thickness) and every mouse received an intratumoral injection, according to their group. Group 1 (control) received 100 μl PBS. […] When the tumor burden became unbearable, the mice were sacrificed.

Question: Which results are given for “proadrenomedullin N-terminal 20 peptide (12-20) (KWNKWALSR; listed as Homo sapiens) [PAMP(12-20), peptide which comprises only amino acids 12-20 of PAMP]”?
Answer: reversal of PAMP block of ATP-induced calcium response [1]: initial response was recovered; inhibition of tumor cell-induced angiogenic response [2]: completely blocked; inhibition of tumor cell-induced angiogenic response [3]: completely blocked; inhibition of the angiogenic response elicited by PAMP ([4]; 1 nM PAMP with 100 nM PAMP(12-20) (hundred-fold excess)): inhibited angiogenesis to the basal levels; inhibition of the angiogenic response elicited by PAMP ([4]; 1 nM full-length PAMP with increasing doses of PAMP(12-20)): dose-dependent inhibition; effect on basal angiogenesis ([4]; PAMP(12-20) by itself): did not modify basal angiogenesis; treatment time after which statistical differences in tumor size were observed ([5]; 1 mM PAMP(12-20) versus PBS, ten mice per group): nine; tumor growth versus PBS control ([5]; 1 mM PAMP(12-20), 100 μl intratumoral injection three times a week): slower rate of tumor growth
